Changes are numbered by the printed parent chain. In names and notes the source's numbering stands. Blank lines part the entries; values can stand above or below the molecule they belong to.
What was measured:
[1] = test system: neonatal rat ventricular myocytes; assay: Hypertrophy of neonatal rat ventricular myocytes (PDE3 inhibitor treatment or transfection with dominant-negative constructs, with or without norepinephrine); format: cell-based; settings: for cellular hypertrophy: neonatal rat ventricular myocytes, treatment or transfection alone
From the text: FIG. 5. Anti-hypertrophic actions of PDE3A1-selective targeting in neonatal rat ventricular myocytes.
In contrast, expression of the PDE3A1 dominant negative has no pro-hypertrophic effect, and actually blocks the hypertrophic responses to norepinephrine.
In neonatal rat ventricular myocytes, conventional PDE3 inhibition promotes cellular hypertrophy, which may be associated with adverse consequences in heart failure. We questioned what effect PDE3A1-selective inhibition would have. […] The F1004A substitution is a change in the amino acid sequence of PDE3A1 at amino acid position 1004 from a phenylalanine to an alanine. We transfected neonatal rat ventricular myocytes with this dominant-negative construct to competitively block the protein-protein interactions that localize PDE3A1 to specific intracellular microdomains. […] To our knowledge, this is the first direct evidence that conventional PDE3 inhibition and isoform-selective targeting have different effects in cardiac myocytes, and that some of the adverse consequences of nonselective PDE3 inhibition may be averted by isoform-selective targeting involving protein-protein interactions.

SR vesicles = assay: 45Ca2+ uptake in SR vesicles from human myocardium; format: biochemical; settings: cAMP 3 μM, cilostamide 1 μM; SR fractions
Protocol: FIG. 7 a-f. cAMP, PKA, and PDE3-inhibition increase SERCA2 activity and Ca^2+ uptake. A. After incubation of SR fractions (20 μg) in the absence or presence of the indicated concentrations of ATP and/or cAMP, without or with cilostamide or rolipram, endogenous PLB, phosphorylated PLB, and ρ-actin were detected after SDS-PAGE and immunoblotting. Data are representative of three experiments. In these and other Western blots, PLB is predominantly monomeric, most likely due to the heating of samples, prior to electrophoresis, under reducing conditions (buffer containing β-mercatoethanol, DTT, and SDS). […] PDE activity in human cardiac SR fractions, expressed as specific activity (pmol cAMP hydrolyzed/min/mg). […] PDE3 activity was determined as the cilostamide-sensitive fraction, and PDE4 activity as the rolipram-sensitive fraction. […] D. After incubation of SR fractions without or with the indicated concentrations of cAMP (0-10 μM), ^45Ca^2+ uptake was measured in the presence of 0.5 μM free Ca^2+. […]
Oxalate-dependent Ca^2+ uptake was quantified as described previously (17). […] After washing four times with 4 ml buffer containing 140 mM KCl, 10 mM NaCl, 2 mM MgCl2, 1 mM CaCl2 and 50 mM imidazole-HCl, (pH 7.0), radioactivity retained on the filters was quantified by liquid scintillation counting. Free [Ca^2+] was calculated using a program obtained at http://www.stanford.edu/˜cpatton/webmaxc/webmaxcS.htm.

PLB = assay: cAMP-dependent phosphorylation of endogenous PLB in human myocardial membranes; format: biochemical; settings: 0.1 μM cAMP; cilostamide 1 μM or rolipram 10 μM; human left ventricular microsomes
Protocol: FIG. 7 a-f. cAMP, PKA, and PDE3-inhibition increase SERCA2 activity and Ca^2+ uptake. A. After incubation of SR fractions (20 μg) in the absence or presence of the indicated concentrations of ATP and/or cAMP, without or with cilostamide or rolipram, endogenous PLB, phosphorylated PLB, and ρ-actin were detected after SDS-PAGE and immunoblotting. Data are representative of three experiments. In these and other Western blots, PLB is predominantly monomeric, most likely due to the heating of samples, prior to electrophoresis, under reducing conditions (buffer containing β-mercatoethanol, DTT, and SDS). B. Bar graph summarizing pSer16PLB/PLB total ratios. *P<0.01 vs. control (n=3 independent experiments). C. PDE activity in human cardiac SR fractions, expressed as specific activity (pmol cAMP hydrolyzed/min/mg). Results are presented as mean+/−SEM (n=3 preparations). PDE3 activity was determined as the cilostamide-sensitive fraction, and PDE4 activity as the rolipram-sensitive fraction. […] D. After incubation of SR fractions without or with the indicated concentrations of cAMP (0-10 μM), ^45Ca^2+ uptake was measured in the presence of 0.5 μM free Ca^2+. Results are presented as % increase due to cAMP, with basal Ca^2+ uptake (9.4+/−0.8 nmol/mg/min, n=3) taken as 100%. […]

rSERCA2 = molecular target: T1, rSERCA2 (Homo sapiens, UniProt P16615); assay: Co-immunoprecipitation of Flag-tagged rhPDE3A variants and rSERCA2 after incubation with or without rPKAc; format: binding; settings: serine-to-alanine mutants of rhPDE3A1, 50 units rPKAc, co-IP
T1 construct: purchased Abnova
From the text: FIG. 11 a-d. rPKAc phosphorylates rhPDE3A and increases its interactions rSERCA2. A. Schemes representing PDE3A1 [NHR1: trans-membrane domain (obligatory membrane insertion domain); NHR2: membrane association domain; CCR: conserved C-terminal catalytic region; P1-4: predicted PKA phosphorylation sites; rhPDE3A and truncated mutants (PDE3A2, PDE3A-A510, PDE3A-RD), and rSERCA2 (1042 amino acids, 3-77 cation transporter N-terminal; 93-341, E1-E2 ATPase; 345-724, haloacid dehydrogenase like hydrolase; 819-991, cation transporter ATPase C-terminus). B. Putative PKA phosphorylation sites of PDE3A designated with asterisks. C-D. Purified rSERCA2 (150 ng) (Abnova) and 50 units of Flag-tagged rhPDE3A1 truncated mutants [rhPDE3A2, rhPDE3A-A510, and similarly expressed rhPDE3A-RD (aa 146-484)](FIG. 11D) or mutants lacking the PKA putative phosphorylation site mutants of rhPDE3A1 [Ser292/293A (M1), S312A (M2), S428A (M3), S438A (M4), S292A/293A/312A/438A (M5)](FIG. 11C) were incubated with or without 50 units of rPKAc at 30° C. for 30 min and 5 mM MgCl2 in phosphorylation buffer. Proteins were immunoprecipitated with anti-Flag antibodies and immunoblotted with anti-SERCA2 (upper panel), or anti-Flag (middle panel). Lower panel: input control (SERCA2). Shown are representative blots from three independent experiments. (RD: regulatory domain; AA: amino acid).
Flag-tagged rhPDE3A1 and its phosphorylation site mutants [rhPDE3A1-S292A/293A (M1), rhPDE3A1-S312A (M2), rhPDE3A1-S428A (M3), rhPDE3A1-S438A (M4), rhPDE3A1-S292A/293A/312A/438A (M5) open reading frame [accession #NP_000912] was synthesized by Genscript, Inc (Piscataway, N.J.), subcloned into pAcSG2 baculoviral expression vector. Flag-tagged rhPDE3A variants and phosphorylation site mutants were expressed in SF21 cells [(10-20)×106 SF21 cells/75-cm2 flask] as described (19,20). SF21 cells were harvested, sedimented (10 min, 1000×g, 4° C.), washed twice with ice-cold PBS, resuspended, homogenized (in a Dounce homogenizer) in buffer B and sonicated […]. A comparison of the translated sequences of human AKAP18γ (AC NP_057461 and AK300587; 348 aa residues) and rat AKAP18δ (3) (AC QJP77; 352 aa residues) indicate that eight of the first twelve aa residues of human AKAP18γ and rat AKAP18δ are identical, and that the proteins are homologous (˜74% aa identity). SF21 cell extracts, which contained his-tagged-rAKAP18δ, were prepared as described above. Flag-tagged rhPDE3A1 (usually 50 arbitrary (u) units) was incubated (30 min, 30° C.) with rAKAP18δ (200 μl, containing 50 ng of recombinant protein), with or without different concentrations of rPKAc (final volume, 300 μl) in buffer B containing 2 mM DTT and 200 μM ATP. Reactions were stopped by dilution of reaction mixtures to 1.0 ml with buffer B containing 1 mg/ml SF21 cell lysates, and cleared as described above (cf ‘Immunoprecipitation and immunoblotting’ subsection). His-tagged rAKAP18δ was immunoprecipitated with anti-his Mab Mag-beads (Genscript). Anti-his Mab Mag beads-bound immunoprecipitates were washed, collected, and anti-his Mab Mag-beads-bound proteins were eluted by boiling in Laemmli's SDS buffer (100 μl) and samples (15 μl) of immunoprecipitated proteins as well as of reaction mixtures (‘input proteins’) were immunoblotted with indicated antibodies as described above.

T1 sequence (P16615 whole entry): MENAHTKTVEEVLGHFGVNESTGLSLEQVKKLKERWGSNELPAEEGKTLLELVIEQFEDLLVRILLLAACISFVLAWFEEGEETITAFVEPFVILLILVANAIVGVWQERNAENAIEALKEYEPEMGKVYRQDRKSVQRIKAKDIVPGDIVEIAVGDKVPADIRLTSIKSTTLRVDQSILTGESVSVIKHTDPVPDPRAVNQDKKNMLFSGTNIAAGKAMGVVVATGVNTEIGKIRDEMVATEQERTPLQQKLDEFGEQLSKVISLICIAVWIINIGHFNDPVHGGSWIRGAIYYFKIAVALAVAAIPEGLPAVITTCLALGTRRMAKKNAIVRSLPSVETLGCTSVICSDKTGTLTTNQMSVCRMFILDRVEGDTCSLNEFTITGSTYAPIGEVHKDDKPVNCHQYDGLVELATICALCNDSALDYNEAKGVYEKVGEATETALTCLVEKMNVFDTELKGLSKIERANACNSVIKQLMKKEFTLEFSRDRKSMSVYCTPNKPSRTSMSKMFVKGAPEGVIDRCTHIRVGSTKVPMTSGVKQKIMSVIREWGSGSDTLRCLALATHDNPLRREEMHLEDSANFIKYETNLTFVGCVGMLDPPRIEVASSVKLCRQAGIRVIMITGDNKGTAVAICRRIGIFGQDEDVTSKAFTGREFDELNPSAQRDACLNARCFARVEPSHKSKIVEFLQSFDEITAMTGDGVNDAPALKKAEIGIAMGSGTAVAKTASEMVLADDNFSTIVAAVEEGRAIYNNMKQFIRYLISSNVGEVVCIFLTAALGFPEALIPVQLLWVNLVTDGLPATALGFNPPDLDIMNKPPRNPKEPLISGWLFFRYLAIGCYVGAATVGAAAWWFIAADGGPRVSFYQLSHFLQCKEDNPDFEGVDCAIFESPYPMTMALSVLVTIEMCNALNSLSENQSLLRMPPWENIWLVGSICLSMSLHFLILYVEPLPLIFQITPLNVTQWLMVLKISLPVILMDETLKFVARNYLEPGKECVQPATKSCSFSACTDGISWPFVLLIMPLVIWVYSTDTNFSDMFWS

Molecule: CN(C(=O)CCCOc1ccc2[nH]c(=O)ccc2c1)C1CCCCC1 [cilostamide]
- cellular hypertrophy [1]: promote myocyte hypertrophy
- effect on cAMP-increased ATP-dependent, oxalate-supported Ca2+ uptake (SR vesicles): potentiated
- phosphorylation of PLB at S16 by endogenous PKA (PLB): stimulated

Molecule: COc1ccc(C2CNC(=O)C2)cc1OC1CCCC1 (centres unmarked) [rolipram]
- phosphorylation of PLB at S16 by endogenous PKA (PLB): no effect

B1: PDE3A1-F1004A: RFP-tagged PDE3A1 construct with F1004A substitution in the C-terminus yielding a catalytically inactive, dominant-negative protein (SEQ ID NO:2) (protein, listed as Homo sapiens)
chain: MAVPGDAARVRDKPVHSGVSQAPTAGRDCHHRADPASPRDSGCRGCWGDLVLQPLRSSRKLSSALCAGSLSFLLALLVRLVRGEVGCDLEQCKEAAAAEEEEAAPGAEGGVFPGPRGGAPGGGARLSPWLQPSALLFSLLCAFFWMGLYLLRAGVRLPLAVALLAACCGGEALVQIGLGVGEDHLLSLPAAGVVLSCLAAATWLVLRLRLGVLMIALTSAVRTVSLISLERFKVAWRPYLAYLAGVLGILLARYVEQILPQSAEAAPREHLGSQLIAGTKEDIPVFKRRRRSSSVVSAEMSGCSSKSHRRTSLPCIPREQLMGHSEWDHKRGPRGSQSSGTSITVDIAVMGEAHGLITDLLADPSLPPNVCTSLRAVSNLLSTQLTFQAIHKPRVNPVTSLSENYTCSDSEESSEKDKLAIPKRLRRSLPPGLLRRVSSTWTTTTSATGLPTLEPAPVRRDRSTSIKLQEAPSSSPDSWNNPVMMTLTKSRSFTSSYAISAANHVKAKKQSRPGALAKISPLSSPCSSPLQGTPASSLVSKISAVQFPESADTTAKQSLGSHRALTYTQSAPDLSPQILTPPVICSSCGRPYSQGNPADEPLERSGVATRTPSRTDDTAQVTSDYETNNNSDSSDIVQNEDETECLREPLRKASACSTYAPETMMFLDKPILAPEPLVMDNLDSIMEQLNTWNFPIFDLVENIGRKCGRILSQVSYRLFEDMGLFEAFKIPIREFMNYFHALEIGYRDIPYHNRIHATDVLHAVWYLTTQPIPGLSTVINDHGSTSDSDSDSGFTHGHMGYVFSKTYNVTDDKYGCLSGNIPALELMALYVAAAMHDYDHPGRTNAFLVATSAPQAVLYNDRSVLENHHAAAAWNLFMSRPEYNFLINLDHVEFKHFRFLVIEAILATDLKKHFDFVAKFNGKVNDDVGIDWTNENDRLLVCQMCIKLADINGPAKCKELHLQWTDGIVNEFYEQGDEEASLGLPISPFMDRSAPQLANLQESAISHIVGPLCNSYDSAGLMPGKWVEDSDESGDTDDPEEEEEEAPAPNEEETCENNESPKKKTFKRRKIYCQITQHLLQNHKMWKKVIEEEQRLAGIENQSLDQTPQSHSSEQIQAIKEEEEEKGKPRGEEIPTQKPDQ
modifications: RFP tag; (1)..(1141) conceptual translation of the longest ORF of the PDE3A gene with a mutation at amino acid position 1004 in which phenylalanine is changed to alanine; presence of alanine at amino acid 1004 inactivates phosphodiesterase activity
- hypertrophic response to norepinephrine ([1]; neonatal rat ventricular myocytes transfected with construct, norepinephrine): blocked the hypertrophic response to norepinephrine
- cellular hypertrophy [1]: did not induce cellular hypertrophy

- PKA-stimulated (phosphorylation-dependent) interaction with SERCA2 (rSERCA2): had no effect
B2: M4: Flag-tagged rhPDE3A1 phosphorylation site mutant S438A (protein, UniProt Q14432 1-1141, looked up, variant S438A)
cGMP-inhibited 3',5'-cyclic …: B1 chain with S438A, A1004F
modifications: Flag tag
notes: Flag-tagged rhPDE3A1 phosphorylation site mutant S438A

- PKA-stimulated (phosphorylation-dependent) interaction with SERCA2 (rSERCA2): slightly decreased
B3: M3: Flag-tagged rhPDE3A1 phosphorylation site mutant S428A (protein, UniProt Q14432 1-1141, looked up, variant S428A)
cGMP-inhibited 3',5'-cyclic …: B1 chain with S428A, A1004F
modifications: Flag tag
notes: Flag-tagged rhPDE3A1 phosphorylation site mutant S428A

Reference: patent US9994830B2, “Methods for modulating cyclic nucleotide-mediated signaling in cardiac myocytes and compositions” (The United States of America as Represented by the …, priority 2014, dated 2018)
